{
  "source": "patent US20130109616A1",
  "about": "“ANTIMICROBIAL PEPTIDES” (priority 2010, published 2013)",
  "key": {"[1]": {"test_system": "B. anthracis UM23-CI2 vegetative cells", "type": "cell-based, Bacillus anthracis"}, "[2]": {"test_system": "Burkholderia cepacia J2540", "type": "cell-based"}, "Vaccinia virus": {"test_system": "Vaccinia virus", "type": "cell-based"}, "[3]": {"test_system": "B. anthracis UM23-CI2 spores", "type": "cell-based, Bacillus anthracis"}, "E. coli": {"test_system": "E. coli", "assay": "Modified microtitre broth dilution, IC50/IC90", "type": "cell-based, Escherichia coli", "design": "unit not given here"}, "[4]": {"test_system": "Candida albicans (SC5314)", "assay": "Serial dilution growth/killing assay", "type": "cell-based", "conditions": "serial dilutions, 14 hours at 30° C., FIG. 6; peptides C-terminally amidated"}, "[5]": {"test_system": "Staphylococcus aureus (NC131142)", "assay": "Serial dilution growth/killing assay", "type": "cell-based", "conditions": "peptides C-terminally amidated"}, "[6]": {"test_system": "subtilisin or V8 protease", "assay": "Protease resistance: membrane-binding ELISA after protease pre-incubation", "conditions": "subtilisin and/or V8 protease, 30 minutes at room temperature, FIG. 1"}, "[7]": {"test_system": "Bacillus subtilis membranes", "assay": "Membrane-binding ELISA", "conditions": "expressed peptide fused to 3×FLAG-10×His, no protease"}},
  "note": "Entries after “also recorded” stand apart in the source; their conditions may differ.",
  "data": [
    {"substance": "FKRIVQRIKDFLRKLVPRIMS [Peptide H04]", "values": [
      {"measurement": "change in cell number, exponential phase cells", "setting": "[1]", "result": "further reductions in cell number"},
      {"measurement": "duration of antibacterial activity, vegetative cells", "setting": "[1]", "result": "still effective at the end of the 24-hour period"},
      {"measurement": "activity against B. cepacia at 24 hours", "setting": "[2]", "result": "no bacteria were detectable; also recorded: effective killing activity over the entire duration of the 24-hour testing period"},
      {"measurement": "reduction of the starting culture of B. cepacia", "setting": "[2]", "result": 99.9, "unit": "%"},
      {"measurement": "anti-viral activity against Vaccinia virus compared with LL-37", "setting": "Vaccinia virus", "result": "greater anti-viral activity than the wild-type peptide, LL-37"},
      {"measurement": "bactericidal activity against Bacillus anthracis spores (in words)", "setting": "[3]", "result": "improved bactericidal activity"},
      {"measurement": "duration of antibacterial activity, spores", "setting": "[3]", "result": "still effective at the end of the 24-hour period"},
      {"measurement": "IC50", "setting": "E. coli", "result": "7.8-15.6"},
      {"measurement": "IC90", "setting": "E. coli", "result": "15.6-31.3"}
    ]},
    {"substance": "FRRIVQRIKDFLRNLVMRRKN [Peptide F11, FRRIVQRIKDFLRNLV MRRKN]", "values": [
      {"measurement": "change in cell number, exponential phase cells", "setting": "[1]", "result": "further reductions in cell number"},
      {"measurement": "duration of antibacterial activity, vegetative cells", "setting": "[1]", "result": "still effective at the end of the 24-hour period"},
      {"measurement": "killing of C. albicans compared with MAF-23 peptides", "setting": "[4]", "result": "killed C. albicans more effectively than the wild type peptides MAF23 and acetylated MAF23"},
      {"measurement": "activity against B. cepacia at 24 hours", "setting": "[2]", "result": "effective killing activity over the entire duration of the 24-hour testing period"},
      {"measurement": "reduction of the starting culture of B. cepacia", "setting": "[2]", "result": "~99", "unit": "%"},
      {"measurement": "colonies recovered, S. aureus", "setting": "[5]; 25 nM peptide", "result": "approximately 10^3 colonies/ml"},
      {"measurement": "killing of S. aureus compared with MAF-23 peptides", "setting": "[5]; serial dilutions, 14 hours at 30° C., FIG. 5", "result": "killed S. aureus more effectively than the MA23 or N-terminally acetylated MA23"},
      {"measurement": "anti-viral activity against Vaccinia virus compared with LL-37", "setting": "Vaccinia virus", "result": "greater anti-viral activity than the wild-type peptide, LL-37"},
      {"measurement": "bactericidal activity against Bacillus anthracis spores (in words)", "setting": "[3]", "result": "improved bactericidal activity"},
      {"measurement": "duration of antibacterial activity, spores", "setting": "[3]", "result": "still effective at the end of the 24-hour period"},
      {"measurement": "IC50", "setting": "E. coli", "result": "7.8-15.6"},
      {"measurement": "IC90", "setting": "E. coli", "result": "7.8-15.6"}
    ]},
    {"substance": "LLGDFFRKSKEKIGKEFKRIVQRIKDFLRNLVPRTES [LL-37, reference compound]", "values": [
      {"measurement": "activity against Bacillus anthracis vegetative cells (in words)", "setting": "[1]", "result": "did not have activity"},
      {"measurement": "effect on growth of B. cepacia", "setting": "[2]", "result": "no effect on the growth"},
      {"measurement": "bactericidal activity against Bacillus anthracis spores (in words)", "setting": "[3]", "result": "better activity than MA-22"},
      {"measurement": "duration of antibacterial activity, spores", "setting": "[3]", "result": "activity was lost within the 24 hour period"},
      {"measurement": "IC50", "setting": "E. coli", "result": "15.6-31.3"},
      {"measurement": "IC90", "setting": "E. coli", "result": "15.6-31.3"}
    ]},
    {"substance": "LLGVFFRKRKAKIGKKFKRILQRIKDFRRNLVPRIKS [Peptide C11]", "values": [
      {"measurement": "effect on growth of B. cepacia", "setting": "[2]", "result": "prevent B. cepacia from growing"},
      {"measurement": "bactericidal activity against Bacillus anthracis spores (in words)", "setting": "[3]", "result": "improved bactericidal activity"},
      {"measurement": "IC50", "setting": "E. coli", "result": "15.6-31.3"},
      {"measurement": "IC90", "setting": "E. coli", "result": "31.3-62.5"}
    ]},
    {"substance": "VKRIVQRIKVFLRNLMPRSKS [Peptide G11]", "values": [
      {"measurement": "ELISA binding signal after protease treatment (proteolytic resistance)", "setting": "[6]", "result": "increase signal strength"},
      {"measurement": "effect on growth of B. cepacia", "setting": "[2]", "result": "prevent B. cepacia from growing"},
      {"measurement": "bactericidal activity against Bacillus anthracis spores (in words)", "setting": "[3]", "result": "improved bactericidal activity"},
      {"measurement": "IC50", "setting": "E. coli", "result": "31.3-62.5"},
      {"measurement": "IC90", "setting": "E. coli", "result": "62.5-125"}
    ]},
    {"substance": "wild-type full length LL-37 peptide fused to 3×FLAG-10×His [reference compound]", "values": [
      {"measurement": "ELISA binding signal after protease treatment (proteolytic resistance)", "setting": "[6]", "result": "abolished the signal"},
      {"measurement": "binding to immobilised Bacillus subtilis membranes (ELISA signal)", "setting": "[7]", "result": "significant binding"}
    ]}
  ]
}
